# Assay results taken from BindingDB's records for doi:10.7270/Q25B012X (Burnham Center For Chemical Genomics, 2012).
# pIC50: −log10 of the molar value.
# Biological target: Protein Wnt-3a (Mus musculus, UniProt P27467)
# Sequence (P27467 whole entry): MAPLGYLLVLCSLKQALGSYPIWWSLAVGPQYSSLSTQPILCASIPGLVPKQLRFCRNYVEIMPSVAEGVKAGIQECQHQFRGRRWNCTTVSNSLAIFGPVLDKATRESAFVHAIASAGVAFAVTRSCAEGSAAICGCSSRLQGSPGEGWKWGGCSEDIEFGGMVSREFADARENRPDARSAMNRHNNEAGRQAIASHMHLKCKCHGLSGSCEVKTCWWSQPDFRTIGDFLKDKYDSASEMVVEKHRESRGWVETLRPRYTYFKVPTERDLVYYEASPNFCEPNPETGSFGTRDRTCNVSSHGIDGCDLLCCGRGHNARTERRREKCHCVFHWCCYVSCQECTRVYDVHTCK
row,SMILES,pIC50
1,CC(C)(C)C1CCC(OC(=O)C[N+]2(C)CCCCC2)CC1 (configuration not stated) [SMR000306329],< 4.30
2,"CCCCn1c(SCc2c(C)noc2C)nc2cc(S(N)(=O)=O)ccc21 [1-butyl-2-[(3,5-dimethyl-1,2-oxazol-4-yl)methylsulfanyl]benzimidazole-5-sulfonamide]",< 4.30
3,Cc1ccc(-c2csc(NC(=O)c3c(C)noc3C)n2)s1,< 4.30
4,COc1ccc(CN(C)C(=O)c2cccc(NC(=O)Cc3sc(N4CCCCC4)nc3O)c2)c(OC)c1 [MLS002180955],4.66
5,CC(=O)c1ccc(-[n+]2cc(-c3ccc(C(C)(C)C)cc3)n3c2SCCC3)cc1 [MLS001018012],< 4.30
6,CCOc1ccc(-c2nc(CSCC(=O)NC3CC3)c(C)o2)cc1 [SMR000635235],< 4.30
7,"CCOc1ccc(-n2c(O)c(CN=Nc3nc(C)cc(C)n3)c3ccccc3c2=O)cc1 [(4Z)-4-[[(4,6-dimethyl-2-pyrimidinyl)hydrazo]methylidene]-2-(4-ethoxyphenyl)isoquinoline-1,3-dione]",4.95
8,"Cc1nc2sccn2c1-c1csc(NCc2ccccc2)n1 [4-(6-methyl-5-imidazo[2,1-b]thiazolyl)-N-(phenylmethyl)-2-thiazolamine]",< 4.30
9,CCCCCCCOc1ccc(OC(=O)c2ccncc2)cc1 [(4-heptoxyphenyl) pyridine-4-carboxylate],< 4.90
10,CCCc1nc(SCC(=O)Nc2nnc(CC)s2)c2c(=O)n(C)c(=O)n(C)c2n1 [SMR000806028],< 4.30
11,"COc1ccc(-c2c[n+](CC(=O)c3ccccc3)c3n2CCCCC3)cc1 [2-[3-(4-methoxyphenyl)-6,7,8,9-tetrahydro-5H-imidazo[1,2-a]azepin-1-ium-1-yl]-1-phenyl-ethanone;bromide]",< 4.30
12,C[n+]1c2n(c3ccccc31)N=C(c1ccccc1)CS2 [SMR000176360],< 4.30
13,CCc1cc(C(=O)NC2CCCN(Cc3ccccc3F)C2)n(C)n1 (configuration not stated) [5-ethyl-N-[1-[(2-fluorophenyl)methyl]piperidin-3-yl]-2-methyl-pyrazole-3-carboxamide],< 4.30
14,Cc1ccc(C2=C(CC(=O)O)C(=O)CC2)cc1 [2-[2-(4-methylphenyl)-5-oxidanylidene-cyclopenten-1-yl]ethanoic acid],< 4.30
15,O=C(Nc1cc2c3c(c1)C1CCCC1CN3CC1CCCC21)c1ccc([N+](=O)[O-])cc1 (configuration not stated) [MLS000324904],< 4.90
16,O=C(Nc1ccncc1)c1ccc(-c2ccccc2)cc1 [4-phenyl-N-(4-pyridyl)benzamide],< 4.30
17,CCn1c(CC=Nc2ccccc2)[n+](CC)c2ccc(Cl)cc21 [SMR000173759],4.58
18,CC(N=Nc1ccc(Cl)nn1)c1ccccc1O (configuration not stated) [MLS001233678],< 4.30
19,CCc1ccccc1NC(=S)NN=C1C(=O)N(C)c2ccc(S(=O)(=O)N3CCOCC3)cc21 [SMR000207996],4.88
20,Cc1ccc(S(=O)(=O)N2CCN(C(=O)c3ccc(S(=O)(=O)N4CCCC4)cc3)CC2)cc1 [[4-(Pyrrolidine-1-sulfonyl)-phenyl]-[4-(toluene-4-sulfonyl)-piperazin-1-yl]-methanone],< 4.30
21,C=CCN1C(=O)C(=NNC(=S)Nc2cccc(C)c2)c2ccccc21 [1-(3-methylphenyl)-3-[(Z)-(2-oxidanylidene-1-prop-2-enyl-indol-3-ylidene)amino]thiourea],4.53
22,"Cc1cccc(C)c1N=C(S)N(CCN1CCCCCC1)Cc1ccco1 [1-[2-(1-azepanyl)ethyl]-3-(2,6-dimethylphenyl)-1-(2-furanylmethyl)thiourea]",< 4.30
23,C[N+]1=C(CC=Nc2ccccc2)C(C)(C)c2ccccc21 [MLS000390698],< 4.30

row,SMILES,pIC50
1,O=C(Cc1csc(Nc2[nH]c(=S)nc3ccccc23)n1)NCCCN1CCN(c2ccccc2F)CC1 [SMR000310923],< 4.30
2,COc1cc(C(=O)NC2CCN(C)CC2)ccc1Nc1ncc2c(n1)N(CCc1ccccc1)CCC(=O)N2C [MLS002232307],< 4.30
3,"O=C1NC(=Cc2ccc(O)cc2)C(=O)C1=CNCc1ccccc1 [(3Z,5Z)-3-[(benzylamino)methylidene]-5-[(4-hydroxyphenyl)methylidene]pyrrolidine-2,4-dione]",5.14
4,CCCN(CCC)CCNC(=O)c1cc2c(=O)n(C)c3ccccc3c2n1C [MLS000118109],< 4.30
5,COc1cc(C(=O)NC2CCN(C)CC2)ccc1Nc1ncc2c(n1)N(C1CCCCC1)CCC(=O)N2C [SMR001307858],< 4.30
6,CCCCCCCNC1=CC(=O)CC(c2ccccc2)C1 (configuration not stated) [SMR000203844],< 4.30
7,O=c1c2ccccc2sc2c(CO)ccc(NCCN3CCCCC3)c12 [MLS002702047],< 4.30
8,COc1cccc2nc3c(C(=O)NCCN(C)C)cccc3cc12,< 4.30
9,Clc1ccc(-[n+]2cc(-c3ccc(Br)cc3)n3c2CCCCC3)cc1 [MLS001029582],< 4.30
10,"CN(C)CCn1c2ccccc2c2nc3ccc([N+](=O)[O-])cc3cc21 [N,N-dimethyl-2-(2-nitro-10-indolo[3,2-b]quinolinyl)ethanamine]",< 4.30
11,O=C(Nc1cc(N2CCCCC2)ncn1)c1ccccc1 [N-[6-(1-piperidinyl)-4-pyrimidinyl]benzamide],< 4.30
12,CC(C)(C)OC(=O)N1CCC(c2cc(-c3cccs3)n[nH]2)CC1 [4-(3-thiophen-2-yl-1H-pyrazol-5-yl)-1-piperidinecarboxylic acid tert-butyl ester],< 4.30
13,CCN1C(=O)CCN(C2CCCC2)c2nc(Nc3ccc(C(=O)NC4CCN(C)CC4)cc3OC)ncc21,< 4.30
14,CCC(=O)c1ccc(OCC(O)Cn2c(C)nc3ccccc32)cc1 (configuration not stated) [SMR000075355],< 4.30
15,CC(=O)c1c(C)[nH]c(C(=O)OCC(=O)Nc2sc3c(c2C#N)CCCC3)c1C [SMR000249195],< 4.30
16,CC(C)(C)[C@H]1COC(=O)[C@H](NC(=O)OCC2c3ccccc3-c3ccccc32)C/C=C\C[C@@H](CC(=O)N(CCO)Cc2ccccc2)C(=O)N1 [MLS002320431],< 4.90
17,CCOc1ccc(-c2nc(CSCC(=O)NCC3CCCO3)c(C)o2)cc1 (configuration not stated) [SMR000635237],< 4.30
18,CCCCCCCOc1ccc(OC(=O)c2cccnc2)cc1 [(4-heptoxyphenyl) pyridine-3-carboxylate],< 4.90
19,Cc1ccc(C)c(-c2csc(NC(=O)C3=COCCO3)n2)c1 [SMR000713303],< 4.30
20,COc1ccc(Nc2nc(N3CCOCC3)nc(N3CCOCC3)n2)c(OC)c1 [SMR000515822],< 4.30
21,"CCOc1ccc2[nH]c3c(N4CCN(C(=O)c5ccco5)CC4)ncnc3c2c1 [[4-(8-ethoxy-5H-pyrimido[5,4-b]indol-4-yl)-1-piperazinyl]-(2-furanyl)methanone]",< 4.30
22,"CCn1c(CC=Nc2ccccc2)[n+](CC)c2cc(Cl)c(Cl)cc21 [N-[(E)-2-[5,6-bis(chloranyl)-1,3-diethyl-benzimidazol-3-ium-2-yl]ethenyl]aniline;iodide]",5.14
23,"Cc1ccc(O)c(NC(=O)COc2cc(C)ccc2C)c1 [2-(2,5-dimethylphenoxy)-N-(2-hydroxy-5-methylphenyl)acetamide]",< 4.30

row,SMILES,pIC50
1,COc1ccc(C(=O)C[n+]2cc(-c3ccc(OC)cc3)n3c2CCCC3)cc1 [MLS001018126],< 4.30
2,"Brc1ccc(-c2csc(N3CCCCCC3)n2)cc1 [1-[4-(4-bromophenyl)-1,3-thiazol-2-yl]azepane]",< 4.90
3,CCn1c(=O)cc(SCC(=O)N2CCN(C3CCCCC3)CC2)c2ccccc21 [MLS000092496],< 4.30
4,COc1cc2c(c(OC)c1OC)-c1ccc(N(C)CC(OC)OC)c(=O)cc1[C@@H](NC(C)=O)CC2 [SMR000540275],< 4.30
5,Brc1ccc(-[n+]2c(-c3ccccc3)cc(-c3ccccc3)cc2-c2ccccc2)cc1 [SMR000841262],4.81
6,CCOP(=O)(CCP(=O)(OCC)OCC)OCC [MLS002702923],4.93
7,CC(C)(C)c1ccc(C(=O)NC(=S)Nc2ccc(N3CCOCC3)cc2)cc1,< 4.30
8,"Cc1nc2ccccc2c2oc(C(=O)N3CCN(C4CCCCC4)CC3)cc12 [(4-cyclohexylpiperazin-1-yl)-(4-methylfuro[3,2-c]quinolin-2-yl)methanone]",< 4.30
9,"O=C(C[n+]1cc(-c2ccccc2)n2c1CCCCC2)c1ccc(Cl)cc1 [1-[2-(4-Chloro-phenyl)-2-oxo-ethyl]-3-phenyl-6,7,8,9-tetrahydro-5H-imidazo[1,2-a]azepin-1-ium]",< 4.30
10,"Cc1cc(N=NCc2ccc(O)cc2O)nc(-n2nc(C)cc2C)n1 [(4E)-4-[[2-[2-(3,5-dimethylpyrazol-1-yl)-6-methyl-pyrimidin-4-yl]hydrazinyl]methylidene]-3-oxidanyl-cyclohexa-2,5-dien-1-one]",4.38
11,"COc1cc(C(=O)NC2CCN(C)CC2)ccc1Nc1ncc2c(n1)N(Cc1ccccc1)CCC(=O)N2C [3-methoxy-4-[[5-methyl-6-oxo-9-(phenylmethyl)-7,8-dihydropyrimido[4,5-b][1,4]diazepin-2-yl]amino]-N-(1-methyl-4-piperidinyl)benzamide]",< 4.30
12,CC(NC(=O)c1cc2c(=O)n3ccccc3nc2n(CC2CCCO2)c1=N)c1ccccc1 (configuration not stated) [MLS001217747],< 4.30
13,"O=C(COC(=O)c1ccc2[nH]c3c(c2c1)CCCC3)Nc1ccccc1Cl [[2-[(2-chlorophenyl)amino]-2-oxidanylidene-ethyl] 6,7,8,9-tetrahydro-5H-carbazole-3-carboxylate]",< 4.30
14,Clc1ccc(-c2c[n+](Cc3ccc(Cl)cc3Cl)c3n2CCCCC3)cc1 [SMR000420192],< 4.90
15,O=C(Cn1c(-c2ccccc2)c[n+]2ccsc12)c1ccc(Br)cc1 [SMR000354292],< 4.30
16,"CC(=O)N1c2ccc(S(=O)(=O)N3CCC(C(=O)N4CCCCC4)CC3)cc2CC1C (configuration not stated) [1-[2-methyl-5-(4-piperidin-1-ylcarbonylpiperidin-1-yl)sulfonyl-2,3-dihydroindol-1-yl]ethanone]",< 4.30
17,O=C(CCCCCCC(=O)Nc1ccccc1)NO [Zolinza],< 4.30
18,COCCNC(=O)CSCc1nc(-c2ccc(SC)cc2)oc1C [MLS000089367],< 4.30
19,CC1=CC(C)C2(COC(c3ccc[n+](C)c3)OC2)C(C)C1 (configuration not stated) [MLS000717774],< 4.30
20,CC(C)C(=O)N1CCN(c2ccccc2NC(=O)COc2ccccc2)CC1 [N-[2-[4-(2-methyl-1-oxopropyl)-1-piperazinyl]phenyl]-2-phenoxyacetamide],< 4.30
21,O=C(NC1CCCC1)c1cc(COc2ccc3ncccc3c2)on1,< 4.30
